Results published in US20100286247A1, “Methods of Protection from Oxidative Stress” (Trustees of Boston University, priority 2005, published 2010).
{P} = phosphate

Key:
GPX mRNA = experiment: Northern blot analysis of antioxidant enzyme mRNA: GPX; assay type: cell-based, human; details: 100 μM pTT, 8-72 hours
Experimental: Cell culture followed previously published methods.^92 Primary human newborn dermal fibroblasts were cultured from neonatal circumcised foreskin specimens. The skin samples were treated overnight in a 0.25% trypsin solution at 4° C. to separate the epidermis from the dermis. The separated dermis was then cut into pieces and plated onto etched plastic tissue culture dishes. Primary culture medium consisted of DMEM supplemented with 10% bovine CS, 50 U/ml penicillin and 50 μg/ml streptomycin sulfate. […] Secondary culture medium consisted of DMEM supplemented with 10% CS.
Purified 5′-phosphorylated thymidine dinucleotides (pTT) (Midland Certified Reagents, Inc., Texas) purified by gel filtration and analyzed by mass spectroscopy, were obtained in lyophilized form. […] The stock solution was syringe filter-sterilized through a 0.2 μm pore filter and spectrophotometrically analyzed (absorbance at 260 and 280 nm) to determine the concentration, and frozen in aliquots at −20° C. […]
Cells were harvested in Trizol (Gibco BRL, Gaithersburg, Md.) and stored at −70° C. […] RNA solutions were measured by spectrophotometer readings at 260 nm and 280 nm to determine concentration and purity. […]
Northern and western films as well as stained membranes and pictures of ethidium bromide-stained gels were digitally scanned and analyzed by densitometry. […]

human dermal fibroblasts = details: treatment for 7 days, Li et al.; cited from earlier work
SOD1 protein = experiment: Western blot analysis of antioxidant enzymes: SOD1 protein; assay type: cell-based, human; details: 40 μM, within several hours, up to 168 hours
Experimental: Cell lysates were harvested at various intervals after T-oligo treatment in harvest buffer containing 0.25 M Tris HCl (pH 7.5), 0.375 M NaCl, 2.5% sodium deoxycholate, 1% Triton X-100, 25 mM MgCl2, 0.1 mg/ml aprotinin (Sigma, St. Louis, Mo.) and 1 mM phenylmethyl sulfonyl flouride (PMSF) (Sigma). Samples were sheared through a fine needle syringe, sonicated, centrifuged and the supernatant was isolated. Total cellular protein concentrations were determined spectrophotometrically with the Bio-Rad protein assay (Bio-Rad Laboratories, Inc, Hercules, Calif.). Equal amounts of total protein from each sample (35-65 μg) were separated by 10-15% polyacrylamide gel electrophoresis, and transferred to nitrocellulose membranes. […]
Membranes were reacted with antibodies diluted in Tris-based buffer with nonfat milk powder as a blocking agent. […] Antibody binding was detected with electrochemical luminescence (ECL kit, NEN Life Science Products, Inc.) and exposure to XAR film (Eastman Kodak Co.).
The levels of superoxide dismutase 1 (SOD1), superoxide dismutase 2 (SOD2), catalase (Cat) and glutathione peroxidase (GPX) were determined in newborn fibroblasts at different time points after treatment with 40 μM of T-oligo in comparison with cells treated either with 40 μM of control complementary oligo pCTAACCCTAAC (SEQ ID NO: 22) or diluent. […]

Row | Substance | GPX mRNA level compared to diluent (GPX mRNA) | cells expressing senescence-associated-β-galactosidase after prolonged treatment (human dermal fibroblasts) | SOD1 protein level (SOD1 protein)
1 | 5′-phosphorylated thymidine dinucleotides [pTT] | remain unchanged | – | –
2 | pGTTAGGGTTAG (5' {P}, sugars by position and backbone not given here) [TO] | – | over 60% | induced
